Experimental data reported in patent publication US12678446B2 (PFIZER INC., priority 2020, dated 2026).

Columns and labels:
[1] = system: RSV (RSV A2 ECACC, 0709161v); assay: RSV plaque reduction assay; assay type: cell-based, respiratory syncytial virus; details: human respiratory syncytial virus, HepG2, read-out: RSV A2 Plaque EC50, RSV A2 in Hep-G2 cells; mean of at least two experiments unless noted (n = 1)
In short: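 Eight-point compound dilutions were premixed with RSV A2 (100 PFU/well) and applied to confluent Hep-G2 cells for 2 h, followed by a 2-day incubation at 37° C. under compound-containing 0.8% CMC overlay. EC50 comes from immunostained plaque counts relative to untreated virus wells, averaged over ≥2 runs.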

[2] = cell toxicity CC50; assay type: cell-based; details: human; Hep-G2 cells; mean of at least two experiments; read-out: Cell Cytotoxicity CC50

In the case of `Cc1nn(C)cc1-c1nn2c(c1C(=O)N[C@H]1N=C(c3ccccc3)c3cccc(F)c3NC1=O)O[C@H](C)CC2` [Example 115, (5R)-2-(1,3-Dimethylpyrazol-4-yl)-N-[(3S)-9-fluoro-2-oxo-5-phenyl-1,3-dihydro-1,4-benzodiazepin-3-yl]-5-methyl-6,7-dihydro-5H-pyrazolo[5,1-b][1,3]oxazine-3-carboxamide], the EC50 [1] is reported as 0.226 µM and the CC50 [2] is reported as greater than 25 µM.

For `CN(C)CC1COc2c(C(=O)N[C@H]3N=C(c4ccccc4)c4cccc(F)c4NC3=O)c(-c3ccccc3F)nn2C1` (single isomer, unassigned) [Example 171-2, (6S*)-6-[(Dimethylamino)methyl]-N-[(3S)-9-fluoro-2-oxo-5-phenyl-1,3-dihydro-1,4-benzodiazepin-3-yl]-2-(2-fluorophenyl)-6,7-dihydro-5H-pyrazolo[5,1-b][1,3]oxazine-3-carboxamide], the EC50 [1] was 0.056 µM and the CC50 [2] was greater than 25 µM.

Compound `CCc1ccc(-c2nn3c(c2C(=O)N[C@H]2N=C(c4ccccc4)c4cccc(F)c4NC2=O)OCC2(CC2)C3)cn1` [Example 181, 2-(6-Ethylpyridin-3-yl)-N-[(3S)-9-fluoro-2-oxo-5-phenyl-1,3-dihydro-1,4-benzodiazepin-3-yl]spiro[5,7-dihydropyrazolo[5,1-b][1,3]oxazine-6,1′-cyclopropane]-3-carboxamide] has an EC50 [1] of 0.042 µM and a CC50 [2] greater than 25 µM.

Work on `CS(=O)(=O)CC1COc2c(C(=O)N[C@H]3N=C(c4ccccc4)c4cccc(F)c4NC3=O)c(-c3ccccc3F)nn2C1` (stereo partly drawn) [Example 184, N-[(3S)-9-fluoro-2-oxo-5-phenyl-1,3-dihydro-1,4-benzodiazepin-3-yl]-2-(2-fluorophenyl)-6-(methylsulfonylmethyl)-6,7-dihydro-5H-pyrazolo[5,1-b][1,3]oxazine-3-carboxamide] yielded an EC50 [1] of 0.3 µM and a CC50 [2] greater than 25 µM.

`C[C@@H]1CCn2nc(C3CCN(S(C)(=O)=O)CC3)c(C(=O)N[C@H]3N=C(c4ccccc4)c4cccc(F)c4NC3=O)c2O1` [Example 161, (5R)-N-[(3S)-9-fluoro-2-oxo-5-phenyl-1,3-dihydro-1,4-benzodiazepin-3-yl]-5-methyl-2-(1-methylsulfonylpiperi-din-4-yl)-6,7-dihydro-5H-pyrazolo[5,1-b][1,3]oxazine-3-carboxamide] gave an EC50 [1] of 0.054 µM and a CC50 [2] greater than 25 µM.

`Cn1ncc2c(-c3nn4c(c3C(=O)N[C@H]3N=C(c5ccccc5)c5cccc(F)c5NC3=O)OCCC4)cccc21` [Example 147, N-[(3S)-9-fluoro-2-oxo-5-phenyl-1,3-dihydro-1,4-benzodiazepin-3-yl]-2-(1-methylindazol-4-yl)-6,7-dihydro-5H-pyrazolo[5,1-b][1,3]oxazine-3-carboxamide] showed an EC50 [1] of 0.137 µM and a CC50 [2] greater than 25 µM.

Work on `CCc1ccc(-c2nn3c(c2C(=O)N[C@H]2N=C(c4ccccc4)c4ccccc4NC2=O)O[C@H](C)CC3)c(F)c1` [Example 54] yielded an EC50 [1] of 0.015 µM and a CC50 [2] greater than 25 µM.

`CO[C@H]1CCN(c2ccc(-c3nn4c(c3C(=O)N[C@H]3N=C(c5ccccc5)c5cccc(F)c5NC3=O)O[C@H](C)CC4)cn2)C1` [Example 146, (5R)-N-[(3S)-9-fluoro-2-oxo-5-phenyl-1,3-dihydro-1,4-benzodiazepin-3-yl]-2-[6-[(3S)-3-methoxypyrrolidin-1-yl]pyridin-3-yl]-5-methyl-6,7-dihydro-5H-pyrazolo[5,1-b][1,3]oxazine-3-carboxamide] gave an EC50 [1] of 0.294 µM and a CC50 [2] greater than 25 µM.

`CCn1cc(-c2nn3c(c2C(=O)N[C@H]2N=C(c4ccccc4)c4cccc(F)c4NC2=O)OCC(CO)C3)cn1` (stereo partly drawn) [Example 130, 2-(1-Ethylpyrazol-4-yl)-N-[(3S)-9-fluoro-2-oxo-5-phenyl-1,3-dihydro-1,4-benzodiazepin-3-yl]-6-(hydroxymethyl)-6,7-dihydro-5H-pyrazolo[5,1-b][1,3]oxazine-3-carboxamide] gave an EC50 [1] of 0.35 µM and a CC50 [2] greater than 25 µM.

For `O=C(N[C@H]1N=C(c2ccccc2)c2ccccc2NC1=O)c1nn2c(c1-c1ccc(NC3CC3)nc1F)OCCC2` [Example 38, 3-[6-(Cyclopropylamino)-2-fluoropyridin-3-yl]-N-[(3S)-2-oxo-5-phenyl-1,3-dihydro-1,4-benzodiazepin-3-yl]-6,7-dihydro-5H-pyrazolo[5,1-b][1,3]oxazine-2-carboxamide], the EC50 [1] was 0.189 µM and the CC50 [2] was greater than 25 µM.

In the case of `CCc1ccc(-c2nn3c(c2C(=O)N[C@H]2N=C(c4ccccc4)c4cccc(F)c4NC2=O)O[C@@H](C)CC3)cn1` [Example 127, (5S)-2-(6-Ethylpyridin-3-yl)-N-[(3S)-9-fluoro-2-oxo-5-phenyl-1,3-dihydro-1,4-benzodiazepin-3-yl]-5-methyl-6,7-dihydro-5H-pyrazolo[5,1-b][1,3]oxazine-3-carboxamide], the EC50 [1] is reported as 0.041 µM and the CC50 [2] is reported as greater than 25 µM.

For `CC(C)Nc1ccc(-c2nn3c(c2C(=O)N[C@H]2N=C(c4ccccc4)c4cccc(F)c4NC2=O)O[C@H](C)CC3)cn1` [Example 67, (5R)-N-[(3S)-9-fluoro-2-oxo-5-phenyl-1,3-dihydro-1,4-benzodiazepin-3-yl]-2-[6-(isopropylamino)-3-pyridyl]-5-methyl-6,7-dihydro-5H-pyrazolo[4,1-b][1,3]oxazine-3-carboxamide], the EC50 [1] was 0.019 µM and the CC50 [2] was greater than 25 µM.

With `C[C@@H]1CCn2nc(-c3cnn(C4CC4)c3)c(C(=O)N[C@H]3N=C(c4ccccc4)c4ccccc4NC3=O)c2O1` [Example 125, (5R)-2-(1-Cyclopropylpyrazol-4-yl)-5-methyl-N-[(3S)-2-oxo-5-phenyl-1,3-dihydro-1,4-benzodiazepin-3-yl]-6,7-dihydro-5H-pyrazolo[5,1-b][1,3]oxazine-3-carboxamide] the EC50 [1] was 0.07 µM and the CC50 [2] was greater than 25 µM.

`CC1(C)CCn2nc(-c3ccccc3F)c(C(=O)N[C@H]3N=C(c4ccccc4)c4cccc(F)c4NC3=O)c2O1` [Example 5, N-[(3S)-9-fluoro-2-oxo-5-phenyl-2,3-dihydro-1H-1,4-benzodiazepin-3-yl]-2-(2-fluorophenyl)-5,5-dim ethyl-5H,6H,7H-pyrazolo[3,2-b][1,3]oxazine-3 carboxamide] gave an EC50 [1] of 0.054 µM and a CC50 [2] greater than 25 µM.

`C[C@@H]1CCn2nc(-c3ccc4c(cnn4C)c3)c(C(=O)N[C@H]3N=C(c4ccccc4)c4cccc(F)c4NC3=O)c2O1` [Example 83, (5R)-5-Methyl-2-(1-methylindazol-5-yl)-N-[(3S)-9-fluoro-2-oxo-5-phenyl-1,3-dihydro-1,4-benzodiazepin-3-yl]-6,7-dihydro-5H-pyrazolo[5,1-b][1,3]oxazine-3-carboxamide] gave an EC50 [1] of 0.115 µM and a CC50 [2] greater than 25 µM.

With `O=C(N[C@H]1N=C(c2ccccc2)c2cccc(F)c2NC1=O)c1c(-c2ccccc2F)nn2c1OCC(CN1CCC(F)(F)C1)C2` (stereo partly drawn) [Example 186, 6-[(3,3-Difluoropyrrolidin-1-yl)methyl]-N-[(3S)-9-fluoro-2-oxo-5-phenyl-1,3-dihydro-1,4-benzodiazepin-3-yl]-2-(2-fluorophenyl)-6,7-dihydro-5H-pyrazolo [5,1-b][1,3]oxazine-3-carboxamide] the EC50 [1] was 0.059 µM and the CC50 [2] was greater than 25 µM.

In the case of `CO[C@@H]1CCN(c2ccc(-c3nn4c(c3C(=O)N[C@H]3N=C(c5ccccc5)c5cccc(F)c5NC3=O)O[C@H](C)CC4)cn2)C1` [Example 145, (5R)-N-[(3S)-9-fluoro-2-oxo-5-phenyl-1,3-dihydro-1,4-benzodiazepin-3-yl]-2-[6-[(3R)-3-methoxypyrrolidin-1-yl]pyridin-3-yl]-5-methyl-6,7-dihydro-5H-pyrazolo[5,1-b][1,3]oxazine-3-carboxamide], the EC50 [1] is reported as 0.278 µM and the CC50 [2] is reported as greater than 25 µM.

Compound `CC(C)Nc1ccc(-c2nn3c(c2C(=O)N[C@H]2N=C(c4ccccc4)c4cccc(F)c4NC2=O)OCCC3)cn1` [Example 19, N-[(3S)-9-fluoro-2-oxo-5-phenyl-1,3-dihydro-1,4-benzodiazepin-3-yl]-2-[6-(propan-2-ylamino)pyridin-3-yl]-6,7-dihydro-5H-pyrazolo[5,1-b][1,3]oxazine-3-carboxamide] has an EC50 [1] of 0.031 µM and a CC50 [2] greater than 25 µM.

Work on `C[C@@H]1CCn2nc(-c3cnn(C4COC4)c3)c(C(=O)N[C@H]3N=C(c4ccccc4)c4cccc(F)c4NC3=O)c2O1` [Example 116, (5R)-N-[(3S)-9-fluoro-2-oxo-5-phenyl-1,3-dihydro-1,4-benzodiazepin-3-yl]-5-methyl-2-[1-(oxetan-3-yl)pyrazol-4-yl]-6,7-dihydro-5H-pyrazolo[5,1-b][1,3]oxazine-3-carboxamide] yielded an EC50 [1] of 0.127 µM and a CC50 [2] greater than 25 µM.

In the case of `CC(O)Cc1ccc(-c2nn3c(c2C(=O)N[C@H]2N=C(c4ccccc4)c4ccccc4NC2=O)O[C@H](C)CC3)cn1` (stereo partly drawn) [Example 50, (5R)-2-[6-(2-Hydroxypropyl)pyridin-3-yl]-5-methyl-N-[(3S)-2-oxo-5-phenyl-1,3-dihydro-1,4-benzodiazepin-3-yl]-6,7-dihydro-5H-pyrazolo[5,1-b][1,3]oxazine-3-carboxamide], the EC50 [1] is reported as 0.429 µM and the CC50 [2] is reported as greater than 25 µM.

In the case of `C[C@@H]1CCn2nc(-c3cc(C4CC4)cnc3F)c(C(=O)N[C@H]3N=C(c4ccccc4)c4cccc(F)c4NC3=O)c2O1` [Example 53, (5R)-2-(5-Cyclopropyl-2-fluoro-3-pyridyl)-N-[(3S)-9-fluoro-2-oxo-5-phenyl-1,3-dihydro-1,4-benzodiazepin-3-yl]-5-methyl-6,7-dihydro-5H-pyrazolo[5,1-b][1,3]oxazine-3-carboxamide], the EC50 [1] is reported as 0.092 µM and the CC50 [2] is reported as greater than 25 µM.

With `C[C@@H]1CCn2nc(-c3cc(S(C)(=O)=O)ccc3F)c(C(=O)N[C@H]3N=C(c4ccccc4)c4cccc(F)c4NC3=O)c2O1` [Example 198, (5R)-2-(2-Fluoro-5-methylsulfonylphenyl)-N-[(3S)-9-fluoro-2-oxo-5-phenyl-1,3-dihydro-1,4-benzodiazepin-3-yl]-5-methyl-6,7-dihydro-5H-pyrazolo[5,1-b][1,3]oxazine-3-carboxamide] the EC50 [1] was 0.035 µM and the CC50 [2] was greater than 25 µM.
